{"source": "BindingDB's records for doi:10.3109/14756366.2012.712516", "about": "(Dumlupinar University, 2013)", "key": {"Carbonic anhydrase 2 [1]": {"target": "T1, Carbonic anhydrase 2 (Homo sapiens, UniProt P00918)", "test": "CA Activity Assay"}, "Carbonic anhydrase 1 [2]": {"target": "T2, Carbonic anhydrase 1 (Homo sapiens, UniProt P00915)", "T2 sequence (P00915 whole entry)": "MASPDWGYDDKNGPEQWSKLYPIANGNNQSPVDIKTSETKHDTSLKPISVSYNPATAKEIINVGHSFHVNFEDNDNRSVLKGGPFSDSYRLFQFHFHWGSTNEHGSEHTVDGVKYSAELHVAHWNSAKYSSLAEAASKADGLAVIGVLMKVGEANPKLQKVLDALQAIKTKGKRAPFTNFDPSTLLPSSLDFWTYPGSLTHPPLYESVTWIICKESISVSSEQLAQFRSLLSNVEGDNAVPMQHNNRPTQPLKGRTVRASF", "test": "CA Activity Assay"}, "Carbonic anhydrase 2 [3]": {"target": "T1, Carbonic anhydrase 2", "test": "Hydratase Activity Assay"}, "Carbonic anhydrase 1 [4]": {"target": "T2, Carbonic anhydrase 1", "test": "Hydratase Activity Assay"}, "Carbonic anhydrase 2 [5]": {"target": "T1, Carbonic anhydrase 2", "test": "Esterase Activity Assay", "details": "pH 7.4", "procedure": "(§1) The enzymatic reaction, in a total volume of 3.0 mL, contained 1.4 mL of 0.05 M Tris-SO4 buffer (pH 7.4), 1 mL of 3 mM 4-nitrophenylacetate, 0.5 mL H2O and 0.1 mL enzyme solution."}, "Carbonic anhydrase 1 [6]": {"target": "T2, Carbonic anhydrase 1", "test": "Esterase Activity Assay", "details": "pH 7.4", "procedure": "as §1"}}}
{"smiles": "NS(=O)(=O)c1nnc(NC(=O)c2nn(-c3cccc([N+](=O)[O-])c3)c(-c3ccccc3)c2C(=O)c2ccccc2)s1", "note": "[N-[5-(aminosulfonyl)-1,3,4-thiadiazol-2-yl]-4-benzoyl-1-(3-nitrophenyl)-5-phenyl-1H-pyrazole-3-carboxamide (1)]", "values": [{"measurement": "Ki", "setting": "Carbonic anhydrase 2 [1]", "result": 3000, "unit": "nM"}, {"measurement": "Ki", "setting": "Carbonic anhydrase 1 [2]", "result": 1400, "unit": "nM"}, {"measurement": "IC50", "setting": "Carbonic anhydrase 2 [3]", "result": 400, "unit": "nM"}, {"measurement": "IC50", "setting": "Carbonic anhydrase 1 [4]", "result": 1200, "unit": "nM"}, {"measurement": "IC50", "setting": "Carbonic anhydrase 2 [5]", "result": 3000, "unit": "nM"}, {"measurement": "IC50", "setting": "Carbonic anhydrase 1 [6]", "result": 1400, "unit": "nM"}]}
